We go through 11 molecules from US11638709B2, “Rucaparib, Talazoparib, Veliparib, Olaparib and AZD 2461 for treating impaired skin wound healing” (AKRIBES BIOMEDICAL GMBH, priority 2017, dated 2023).

In experiment [1] the test system is IL-1ß secretion by primary human dermal fibroblasts. Kind of experiment: IL-1ß secretion in the HDF proliferation assay with wound exudate (ELISA). The format is cell-based. The note with it: FIG. 20. How it is done:
(§1) At the end of the 72-hour incubation period, supernatants were removed for the determination of IL-1ß, and the cells were fixed with 4% paraformaldehyde (Morphisto) for 15 minutes at room temperature and washed 3 times with PBS. A control plate was fixed after the overnight adherence of the cells (day 1) to determine the starting cell number.
IL-1ß levels were determined with a commercial ELISA kit. The amount of IL-1ß contained in the wound exudate added to the cells was subtracted from the total IL-ß in the supernatants in order to determine the cytokine secreted by the cells.
(ELISA stands for enzyme-linked immunosorbent assay.)

Experiment [2] has as its system primary human dermal fibroblasts (HDF). Kind of experiment: Fibroblast-derived matrix (FDM) formation assay (3D) with wound exudate. The format is cell-based. The note with it: for 3D fibroblast culture (FDM formation), effect of PARP inhibitors: FIG. 7, WE from patient #78; for 3D fibroblast-derived matrix formation assay, activity: FIGS. 9 and 10. How it is done: HDF cells were seeded at 5000 cells/well on day −3 into 96-well tissue culture plates (1250 cells/well for 384-well plates), which had been pre-coated for 1 hour at 37° C. with 0.2% gelatin solution (Sigma). When the cells reached confluence (=day 0), a matrix promoting supplement (vitamin C: 2-phospho-L-ascorbic acid trisodium salt, 100 μg/ml; Sigma) was added together with test samples containing PDGF-BB, TGF-ß1 or graded concentrations of compounds −/+WE as described for the HDF proliferation assay. After 4 days, medium was replaced by fresh vitamin C—and stimulus—as well as compound-containing medium, maintaining the conditions initiated on day 0. TGF-ß1 and PDGF-BB were included as positive controls to promote FDM formation and cell growth, respectively. After a total incubation time of 8 days, FDM production was measured in fixed cultures via SRB staining and evaluated as described above. In some cases, the experiment was stopped and evaluated already on day 4.
(§2) Low molecular weight compounds (see list in Table 1) were dissolved in DMSO (Bioreagent for cell culture, Sigma) at 10 mM or 100 mM and diluted at least 1:1000 in medium for cellular assays (final DMSO concentration ≤0.1%).
(§3) Cells were incubated with compounds for 72 hours in proliferation assays and up to 8 days for FDM assay (refreshed after 4 days). When compounds were tested for their effect on WE stimulation, the incubation of cells with compounds was started and ended simultaneously with WE-incubation.

The test system is the same in experiment [3]. Description: Primary human dermal fibroblast (HDF) proliferation assay (2D) with or without wound exudate. Format: cell-based. The note with it: for fibroblast proliferation in the absence of WE: FIG. 11, 2D fibroblast culture without WE (control); for HDF proliferation with wound exudate #78, plus PDGF / HDF proliferation with wound exudate #78: FIG. 15; for HDF proliferation with wound exudate #78, plus PDGF: compound + PDGF 20 ng/ml in medium + WE #78; for HDF proliferation with wound exudate #78: compound in medium + WE #78; for wound exudate-induced inhibition of fibroblast proliferation: FIG. 20, with wound exudate; for effect on PDGF-induced induction of proliferation in the absence of WE: with PDGF. How it is done:
(§4) Primary human dermal fibroblasts (HDF) were purchased from CELLnTEC, Bern. They were routinely grown in Dulbecco's modified Eagle's medium (DMEM) containing 10% FCS, 2 mM glutamine, and 100 U/ml penicillin/100 μg/ml streptomycin. Media, antibiotics, and glutamine were bought from Lonza. The cells were used at passage 5-15. Cells were trypsinized and seeded at 5000 cells/well in 200 μl into the inner wells of 96-well plates. The outer wells were loaded with sterile water. The cells were allowed to adhere overnight and then incubated for 72 hours at 37° C. under the following conditions: graded compound concentrations or 20 ng/ml PDGF-BB (Tonbo Biosciences) in the absence or presence of different dilutions of sterile-filtered WE in medium. For control samples, 200 μl medium was added instead of specific stimuli. Alternatively, the cells were seeded into 384-well plates at 2500 cells/well directly together with test compounds or growth factors and WE or medium in a total volume of […].
as §1
Total cellular protein was determined as a measure of cell number by staining the fixed cells with sulforhodamine B (SRB, Sigma). A 0.4% SRB solution in 1% acetic acid was added to the wells for 30 minutes. The wells were then washed with 1% acetic acid until the wash solution remained colorless. […] The average absorbance of the sample representing the day 1 starting cell number (for 96-well plates) was subtracted from the absorbance values of the WE-treated cells.
All experiments were carried out in triplicate for each sample and concentration, and means±standard deviation (SD) were used for the evaluation of the experiment. Results are expressed as percentage of control values for unstimulated cells.
as §2, §3

In experiment [4] the test system is alpha-smooth muscle actin (α-SMA) in human dermal fibroblasts. Description: Immunolocalization of alpha-smooth muscle actin in 2D HDF culture. Format: cell-based. The note with it: FIG. 16; absence of wound exudate; TGF-ß 20 ng/ml. How it is done: as §4
After fixation with paraformaldehyde, the cells were incubated for 1 hour at room temperature with a monoclonal mouse-anti-human antibody against alpha-smooth muscle actin (α-SMA) from e-Bioscience, washed 3 times with PBS and developed with an Alexa Fluor-labelled donkey-anti-mouse IgG (Molecular Probes). […]

For another experiment, the target named is PARP1 (Homo sapiens, UniProt P09874). The note with it: cited from earlier work.
PARP1, sequence (P09874 whole entry, species assumed): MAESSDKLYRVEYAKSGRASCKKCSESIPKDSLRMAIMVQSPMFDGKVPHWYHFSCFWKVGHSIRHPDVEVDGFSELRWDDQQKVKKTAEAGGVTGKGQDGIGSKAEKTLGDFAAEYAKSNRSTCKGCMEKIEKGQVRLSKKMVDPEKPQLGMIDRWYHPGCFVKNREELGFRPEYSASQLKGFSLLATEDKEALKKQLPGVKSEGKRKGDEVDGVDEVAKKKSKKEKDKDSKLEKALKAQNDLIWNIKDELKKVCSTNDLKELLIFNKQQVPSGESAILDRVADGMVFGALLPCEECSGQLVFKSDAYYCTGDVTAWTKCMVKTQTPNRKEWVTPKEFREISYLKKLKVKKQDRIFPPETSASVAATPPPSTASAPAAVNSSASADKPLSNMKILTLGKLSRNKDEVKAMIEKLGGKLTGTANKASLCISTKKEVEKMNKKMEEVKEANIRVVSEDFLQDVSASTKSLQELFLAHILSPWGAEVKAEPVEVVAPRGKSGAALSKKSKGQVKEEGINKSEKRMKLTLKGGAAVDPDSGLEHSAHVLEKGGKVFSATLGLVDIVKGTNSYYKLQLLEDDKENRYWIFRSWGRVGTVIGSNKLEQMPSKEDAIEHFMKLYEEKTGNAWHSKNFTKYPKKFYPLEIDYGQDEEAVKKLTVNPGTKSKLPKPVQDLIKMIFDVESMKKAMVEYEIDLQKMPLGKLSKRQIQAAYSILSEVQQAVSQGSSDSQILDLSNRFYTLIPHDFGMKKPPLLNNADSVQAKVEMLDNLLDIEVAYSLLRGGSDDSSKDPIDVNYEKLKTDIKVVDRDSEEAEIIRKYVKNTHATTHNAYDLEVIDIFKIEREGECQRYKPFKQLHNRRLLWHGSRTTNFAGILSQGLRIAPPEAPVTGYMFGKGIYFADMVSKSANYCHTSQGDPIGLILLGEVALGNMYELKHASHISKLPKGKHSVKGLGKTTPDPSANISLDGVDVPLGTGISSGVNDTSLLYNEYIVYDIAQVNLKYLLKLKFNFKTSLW
Another experiment deals with PARP. The conditions noted are these: cited from earlier work.

Take `O=C(c1cc(Cc2n[nH]c(=O)c3ccccc23)ccc1F)N1CCN(C(=O)C2CC2)CC1` [Olaparib]: the “wound exudate-induced IL-1ß secretion” value in experiment [1] is listed as “reducing IL-1ß secretion”. In experiment [2], the “3D fibroblast culture (FDM formation), effect of PARP inhibitors” value (shortened to “3D fibroblast culture … of PARP inhibitors”) was “strong and consistent positive effect”. The “2D fibroblast culture (HDF proliferation), effect of PARP inhibitors” value (from here on “2D fibroblast culture … of PARP inhibitors”) in experiment [3] (FIG. 8, WE from patient #78) is “strong and consistent positive effect”. In experiment [3], the “fibroblast proliferation in the absence of WE” value is on record as “either no effect on fibroblast proliferation in the absence of wound exudate, or only a marginal effect”; the “HDF proliferation with wound exudate #78, plus PDGF” value is recorded as “even further enhanced by the addition of PDGF”; the “HDF proliferation with wound exudate #78” value was “dose-dependent increase of HDF proliferation”; the “wound exudate-induced inhibition of fibroblast proliferation” value (from here on “wound exudate-induced inhibition”) is on record as “enhanced cell proliferation”. For the same molecule, the “effect on PDGF-induced induction of proliferation in the absence of WE” value in experiment [3] (no WE) is listed as “either had no effect on PDGF-induced induction of proliferation or showed inhibition of the PDGF effect”.

As for `CN(C)CC(=O)Nc1ccc2[nH]c(=O)c3ccccc3c2c1.Cl` [PJ-34], the “3D fibroblast-derived matrix formation assay, activity” value in experiment [2] is “either inactive or only weakly active”. For the same molecule, the “2D fibroblast culture … of PARP inhibitors” value in experiment [3] (FIG. 9, WE from patient #43) is “either inactive or exhibit a very weak activity”; in experiment [3] (FIG. 10, WE from patient #78), “either inactive or exhibit a very weak activity”. In addition, the “2D fibroblast culture, PARP inhibitor effect ± dexamethasone ± Vit. C” value in experiment [3] (FIG. 12, WE from patient #78) is given as “only a weak effect”; in experiment [3] (FIG. 13, WE from patient #43), “only a weak effect”.

For TGF-ß: Transforming growth factor beta, the “staining for myofibroblast marker alpha-smooth muscle actin (α-SMA)” value in experiment [4] was “increases the staining for the myofibroblast marker alpha-smooth muscle actin (α-SMA)”.

With `CN(C)Cc1ccc(-c2nc3cccc4c3n2CCNC4=O)cc1` [AG-14351], the “wound exudate-induced IL-1ß secretion” value in experiment [1] is “reducing IL-1ß secretion”. In addition, on PARP1, the “inhibits PARP1 with an 1050” value is given as “low nM range”. Besides, the “3D fibroblast culture … of PARP inhibitors” value in experiment [2] was “only a very weak effect at a concentration of 10 μM”. Further, the “2D fibroblast culture … of PARP inhibitors” value in experiment [3] (FIG. 8, WE from patient #78) is listed as “only a very weak effect at a concentration of 10 μM”. In experiment [3], the “wound exudate-induced inhibition” value is given as “enhanced cell proliferation”.

With `COC1CCN(C(=O)c2cc(Cc3n[nH]c(=O)c4ccccc34)ccc2F)CC1` [AZD-2461], the “wound exudate-induced IL-1ß secretion” value in experiment [1] is reported as “reducing IL-1ß secretion”. Further, in experiment [2], the “3D fibroblast culture … of PARP inhibitors” value is “strong and consistent positive effect”. The “2D fibroblast culture … of PARP inhibitors” value in experiment [3] (FIG. 8, WE from patient #78) is “strong and consistent positive effect”. Moreover, in experiment [3], the “fibroblast proliferation in the absence of WE” value is “either no effect on fibroblast proliferation in the absence of wound exudate, or only a marginal effect” and the “wound exudate-induced inhibition” value was “enhanced cell proliferation”.

For the molecule “2-phospho-L-ascorbic acid trisodium salt [vitamin C]”, the “2D fibroblast culture, enhancement of PARP inhibitor compound effects by co-agent” value is on record as “synergistically enhance the PARP inhibitor compound effects” in experiment [3] (FIG. 12, WE from patient #78, dexamethasone 3 nM, vitamin C 100 μg/ml) and “synergistically enhance the PARP inhibitor compound effects” in experiment [3] (FIG. 13, WE from patient #43).

Regarding `CNCc1ccc(-c2[nH]c3cc(F)cc4c3c2CCNC4=O)cc1` [Rucaparib], the “wound exudate-induced IL-1ß secretion” value in experiment [1] is “reducing IL-1ß secretion”. In addition, in experiment [2], the “3D fibroblast culture … of PARP inhibitors” value is “strong and consistent positive effect”. Moreover, the “2D fibroblast culture … of PARP inhibitors” value in experiment [3] (FIG. 8, WE from patient #78) was “strong and consistent positive effect”. In experiment [3] (FIG. 9, WE from patient #43), the “2D fibroblast culture … of PARP inhibitors” value is “strong and consistent positive effect”. The “2D fibroblast culture … of PARP inhibitors” value in experiment [3] (FIG. 10, WE from patient #78) is “strong and consistent positive effect”. In experiment [3], the “fibroblast proliferation in the absence of WE” value is listed as “either no effect on fibroblast proliferation in the absence of wound exudate, or only a marginal effect”; the “HDF proliferation with wound exudate #78, plus PDGF” value was “even further enhanced by the addition of PDGF”; the “HDF proliferation with wound exudate #78” value is reported as “dose-dependent increase of HDF proliferation”; the “wound exudate-induced inhibition” value is “enhanced cell proliferation”. The “effect on PDGF-induced induction of proliferation in the absence of WE” value in experiment [3] (no WE) is reported as “either had no effect on PDGF-induced induction of proliferation or showed inhibition of the PDGF effect”.

For `Oc1cccc2c(O)nccc12` [1,5-IQD, 1,5-Isoquinolinediol], in experiment [2], the “3D fibroblast-derived matrix formation assay, activity” value was “either inactive or only weakly active”. Moreover, the “2D fibroblast culture … of PARP inhibitors” value is “either inactive or exhibit a very weak activity” in experiment [3] (FIG. 9, WE from patient #43) and “either inactive or exhibit a very weak activity” in experiment [3] (FIG. 10, WE from patient #78).

For the molecule `NC(=O)c1cccc(N)c1` [3-AB, 3-Aminobenzamide], the “wound exudate-induced IL-1ß secretion” value in experiment [1] is on record as “did not show any of these effects”. Also, the “3D fibroblast-derived matrix formation assay, activity” value in experiment [2] was “either inactive or only weakly active”. Further, the “2D fibroblast culture … of PARP inhibitors” value in experiment [3] (FIG. 9, WE from patient #43) is “either inactive or exhibit a very weak activity”; in experiment [3] (FIG. 10, WE from patient #78), “either inactive or exhibit a very weak activity”. In experiment [3], the “wound exudate-induced inhibition” value is given as “did not show any of these effects”.

As for `NC(=O)c1cccc2cn(-c3ccc([C@@H]4CCCNC4)cc3)nc12` [niraparib], the “wound exudate-induced IL-1ß secretion” value in experiment [1] is reported as “did not show any of these effects”. Also, the “3D fibroblast culture … of PARP inhibitors” value in experiment [2] is reported as “does not show any activity”. Besides, the “inhibits PARP with an 1050” value with PARP is on record as “low nM range”. The “2D fibroblast culture … of PARP inhibitors” value in experiment [3] (FIG. 8, WE from patient #78) is recorded as “does not show any activity”. Further, the “wound exudate-induced inhibition” value in experiment [3] was “did not show any of these effects”.

B1: PDGF: Platelet-derived growth factor, protein growth factor (Tonbo Biosciences) (protein, UniProt P01127 82-190, looked up)
Platelet-derived growth …: SLGSLTIAEPAMIAECKTRTEVFEISRRLIDRTNANFLVWPPCVEVQRCSGCCNNRNVQCRPTQVQLRPVQVRKIEIVRKKPIFKKATVTLEDHLACKCETVAAARPVT
modifications: PDGF-BB homodimer
Regarding B1, the “HDF proliferation in the presence of WE #78” value in experiment [3] (FIG. 14, WE #78, veliparib 10 μM, talazoparib 1 μM, PDGF 20 ng/ml) is reported as “has no effect”. In addition, in experiment [3] (FIG. 14, no WE, veliparib 10 μM, talazoparib 1 μM, PDGF 20 ng/ml), the “HDF proliferation in the absence of WE” value is “induces HDF proliferation”. Also, the “HDF proliferation with wound exudate #78” value in experiment [3] was “inactive”.
